The values that follow come from patent US20240173419A1, “CDK2 DEGRADERS AND USES THEREOF” (Kymera Therapeutics, Inc., priority 2022, published 2024).

For the experiment, the target named is T1, CDK2 (Homo sapiens, UniProt P24941).
T1 construct: endogenous in cells; host or cells: MKN1 cells
Kind of experiment: CDK2 degradation in MKN1 cells (AlphaLISA). The experiment is classed as cell-based. Also on record: key to CDK2 degradation 14 h: Mean external-Abs DC50 (nM): A (<100 nM); B (≥100-500 nM); C (>500-1000 nM); D (>1000 nM); E (not achieved). The note with it: for DC50: read-out: CDK2 degradation 14 h: Mean external-Abs DC50; for Dmax: MKN-1, 14 h incubation. How it is done: Degradation of CDK2 in MKN1 cells was measured using AlphaLISA technology (PerkinElmer ALSU-TCDK2-A10K). MKN1 cells were maintained in RPMI1640 medium containing 10% FBS+1× penn/strep. Cells were seeded in 96-well plates (Corning 3599) at a density of 2e4 cells per well in 80 μL of fresh complete growth medium. Cells were incubated overnight at 37° C., 5% CO2. Compounds were then added to the cell assay plates with a final top concentration of 10 μM in a 1:5 dilution series with a total of 11 doses (0.001 nM-10 μM). The final volume per well was 160 μL and the final DMSO concentration was 0.1%. Additionally, wells containing no cells and only complete growth medium were also maintained on the cell assay plates (‘no cell’ wells) and processed along with experimental wells. After 14 hour-incubation at 37° C., 5% CO2, the medium was removed and the cells were washed once with 100 μL of 1×PBS. Following removal of PBS, 40 μL of 1× Lysis Buffer containing 1× protease and phosphatase inhibitors (Roche 4693116001; Roche 4906837001) were added to each well. The cell assay plate was agitated on a plate shaker at 350 rpm for 10 minutes at room temperature. 10 μL of each cell lysate were transferred to a 384-well plate (PerkinElmer 6007290). 10 μL of control lysates (from PerkinElmer ALSU-TCDK2-A10K kit) were added to separate wells to generate a standard curve. Activation Buffer was prepared by diluting 25-fold in combined Reaction Buffer 1 and Reaction Buffer 2. Acceptor Beads were diluted 50-fold in combined Reaction Buffers. 5 μL of Acceptor Mix were added to each well. The plate was sealed with Topseal-Aadhesive film, covered with foil, and incubated in the dark for 1 hour at room temperature. Under subdued light, the Donor Beads were diluted 50-fold in Dilution Buffer. 5 μL of Donor Mix were added to each well under subdued light. The plate was sealed with Topseal-A adhesive film, covered with foil, and incubated in the dark for 1 hour at room temperature. Under subdued light, the plates were analyzed on an EnVision Microplate Reader (PerkinElmer Model 2009-0030). The average signal from ‘no cell’ wells was subtracted from the signal in experimental wells prior to calculating Alpha signal for test compounds and negative control (0.100 DMSO). The data were analyzed using Xlfit (v5.3. 1.3) and the dose-dependent CDK2 degradation data were fit using a four-parameter logistic model to calculate DC50.
(Bead proximity is the source of the signal in Alpha formats.)

Consider `Cc1cc(S(=O)(=O)NC(C)COC2CN(CC3CCN(c4ccc5c(c4F)n(C)c(=O)n5C4CCC(=O)NC4=O)CC3)C2)ccc1Nc1ncc(C(F)(F)F)c(C2CCC(C)(O)CC2)n1` (racemic) [I-852], for which, for the setting “14 h incubation”, the “CDK2 degradation 14 h: Average Dmax %” value is “B (B (>50% -75%))” and the DC50 is < 100 nM.

Take `Cc1cc(S(=O)(=O)NC(C)COC2CCC(CN3CCN(c4ccc5c(c4F)n(C)c(=O)n5C4CCC(=O)NC4=O)CC3)CC2)ccc1Nc1ncc(C(F)(F)F)c(C2CCC(C)(O)CC2)n1` (racemic) [I-859]: under “14 h incubation”, the DC50 is < 100 nM.

For `[2H]C(C)(COC1CCC(CN2CCN(c3ccc4c(c3F)n(C)c(=O)n4C3CCC(=O)NC3=O)CC2)CC1)NS(=O)(=O)c1ccc(Nc2ncc(C(F)(F)F)c(C3CCC(C)(O)CC3)n2)c(C)c1` (racemic) [I-859], the “CDK2 degradation 14 h: Average Dmax %” value (14 h incubation) is “A (A (>75% o))”.

On to `Cc1cc(S(=O)(=O)NC2CCC(CN3CCN(c4ccc([C@@H]5CCC(=O)NC5=O)c(Cl)c4)CC3)CC2)ccc1Nc1ncc(C(F)(F)F)c(N2CCC[C@](C)(O)C2)n1` (single isomer, unassigned) [I-809], for which the Dmax was > 75%. Also, under “14 h incubation”, the DC50 is < 100 nM.

`Cc1cc(S(=O)(=O)NC2CCC(CN3CCN(c4ccc([C@H]5CCC(=O)NC5=O)c(Cl)c4)CC3)CC2)ccc1Nc1ncc(C(F)(F)F)c(N2CCC[C@](C)(O)C2)n1` (single isomer, unassigned) [I-817]: the greatest degradation seen (Dmax) is > 75%. Also, the DC50 (14 h incubation) was 100 to 500 nM.

Regarding `Cc1cc(S(=O)(=O)CCCO[C@H]2CC[C@H](CN3CCC(c4ccc5c(c4)n(C)c(=O)n5C4CCC(=O)NC4=O)CC3)CC2)ccc1Nc1ncc2cc(Cl)c(=O)n(C3CCCC3)c2n1` (stereo partly drawn) [I-3, 3-[5-[1-[[4-[3-[4-[(6-Chloro-8-cyclopentyl-7-oxo-pyrido[2,3-d]pyrimidin-2-yl)amino]-3-methyl-phenyl]sulfonylpropoxy]cyclohexyl]methyl]-4-piperidyl]-3-methyl-2-oxo-benzimidazol-1-yl]piperidine-2,6-dione], the Dmax was > 75%. In addition, for the setting “14 h incubation”, the half-maximal degradation concentration (DC50) was < 100 nM.

As to `Cc1cc(S(=O)(=O)CCCO[C@H]2CC[C@H](CN3CCC(c4ccc5c(c4)n(C4CCC(=O)NC4=O)c(=O)n5C)CC3)CC2)ccc1Nc1nccc(-c2cnc(C)n2C(C)C)n1` (stereo partly drawn) [I-4], where the note is “14 h incubation”, the “CDK2 degradation 14 h: Average Dmax %” value is recorded as “B (B (>50% -75%))” and the DC50 was < 100 nM.

With `Cc1cc(S(=O)(=O)CCCO[C@H]2CC[C@H](CN3CCC(c4ccc5c(c4)n(C4CCC(=O)NC4=O)c(=O)n5C)CC3)CC2)ccc1Nc1ncc2cc(C(F)F)c(=O)n(C(C)C)c2n1` (stereo partly drawn) [I-6], for the setting “14 h incubation”, the “CDK2 degradation 14 h: Average Dmax %” value is listed as “B (B (>50% -75%))” and the “CDK2 degradation 14 h: Mean external-Abs DC50 (nM)” value is on record as “E”.

With `Cc1cc(S(=O)(=O)C2CCN(CCN3CCN(c4cccc5c4n(C)c(=O)n5C4CCC(=O)NC4=O)CC3)CC2)ccc1Nc1ncc2cc(Cl)c(=O)n(C(C)C)c2n1` (stereo not drawn) [I-7], for the setting “14 h incubation”, the “CDK2 degradation 14 h: Average Dmax %” value was “A (A (>75% o))” and the DC50 is < 100 nM.

As for `Cc1cc(S(=O)(=O)C2CCN(CCN3CCC(c4cccc5c4n(C)c(=O)n5C4CCC(=O)NC4=O)CC3)CC2)ccc1Nc1ncc2cc(Cl)c(=O)n(C(C)C)c2n1` (stereo not drawn) [I-8], where the note is “14 h incubation”, the “CDK2 degradation 14 h: Average Dmax %” value is recorded as “B (B (>50% -75%))” and the DC50 fell in the range of 100 to 500 nM.

Turning to `Cc1cc(S(=O)(=O)C2CCN(C3CCN(CC4CCN(c5cccc6c5n(C)c(=O)n6C5CCC(=O)NC5=O)CC4)CC3)CC2)ccc1Nc1ncc2cc(Cl)c(=O)n(C(C)C)c2n1` (stereo not drawn) [I-10], under “14 h incubation”, the “CDK2 degradation 14 h: Average Dmax %” value is reported as “A (A (>75% o))” and the DC50 is < 100 nM.

Take `Cc1cc(S(=O)(=O)C2CCN(CCC3CCN(c4cccc5c4n(C)c(=O)n5C4CCC(=O)NC4=O)CC3)CC2)ccc1Nc1ncc2cc(Cl)c(=O)n(C(C)C)c2n1` (stereo not drawn) [I-11]: where the note is “14 h incubation”, the “CDK2 degradation 14 h: Average Dmax %” value was “A (A (>75% o))” and the DC50 is < 100 nM.

For the molecule `Cc1cc(S(=O)(=O)C(C)CCO[C@H]2CC[C@H](CN3CCC(c4ccc5c(c4)n(C4CCC(=O)NC4=O)c(=O)n5C)CC3)CC2)ccc1Nc1ncc2cc(Cl)c(=O)n(C3CCCC3)c2n1` (stereo partly drawn) [I-12], where the note is “14 h incubation”, the “CDK2 degradation 14 h: Average Dmax %” value is “A (A (>75% o))” and the DC50 was < 100 nM.

For `Cc1cc(S(=O)(=O)C2CCC(N3CCC(CN(C)c4cccc5c4n(C)c(=O)n5C4CCC(=O)NC4=O)CC3)CC2)ccc1Nc1ncc2cc(Cl)c(=O)n(C3CCCC3)c2n1` (stereo not drawn) [I-33], where the note is “14 h incubation”, the “CDK2 degradation 14 h: Average Dmax %” value is “A (A (>75% o))” and the DC50 is < 100 nM.

Regarding `Cc1cc(S(=O)(=O)C2CC(N3CCC4(CC3)CN(c3cccc5c3n(C)c(=O)n5C3CCC(=O)NC3=O)C4)C2)ccc1Nc1ncc2cc(Cl)c(=O)n(C3CCCC3)c2n1` (stereo not drawn) [I-35], where the note is “14 h incubation”, the “CDK2 degradation 14 h: Average Dmax %” value was “B (B (>50% -75%))” and the 50% degradation concentration (DC50) is < 100 nM.

`Cc1cc(S(=O)(=O)C2CC3(CCN(CC4CCN(c5ccc(NC6CCC(=O)NC6=O)cc5F)CC4)CC3)C2)ccc1Nc1ncc2cc(Cl)c(=O)n(C3CCCC3)c2n1` (stereo not drawn) [I-36]: under “14 h incubation”, the “CDK2 degradation 14 h: Average Dmax %” value is given as “B (B (>50% -75%))” and the half-maximal degradation concentration (DC50) is < 100 nM.

In the case of `Cc1cc(S(=O)(=O)C2CC3(CCN(CC4CCN(c5ccc(NC6CCC(=O)NC6=O)cc5)CC4)CC3)C2)ccc1Nc1ncc2cc(Cl)c(=O)n(C3CCCC3)c2n1` (stereo not drawn) [I-37], where the note is “14 h incubation”, the “CDK2 degradation 14 h: Average Dmax %” value was “B (B (>50% -75%))” and the half-maximal degradation concentration (DC50) lay within 100 to 500 nM.

With `Cc1cc(S(=O)(=O)C2CC3(CCN(CC4CCN(c5ccc6c(c5F)n(C)c(=O)n6C5CCC(=O)NC5=O)CC4)CC3)C2)ccc1Nc1ncc2cc(Cl)c(=O)n(C3CCCC3)c2n1` (stereo not drawn) [I-38], under “14 h incubation”, the “CDK2 degradation 14 h: Average Dmax %” value is given as “A (A (>75% o))” and the DC50 was < 100 nM.

Regarding `Cc1cc(S(=O)(=O)C2CCC(N3CC4(CCN(c5cccc6c5n(C)c(=O)n6C5CCC(=O)NC5=O)CC4)C3)CC2)ccc1Nc1ncc2c(n1)N(C1CCCC1)C(=O)C21CC1` (stereo not drawn) [I-39], under “14 h incubation”, the “CDK2 degradation 14 h: Average Dmax %” value was “B (B (>50% -75%))” and the DC50 is < 100 nM.

Turning to `Cc1cc(S(=O)(=O)C2CC3(CCN(CCC4CCN(c5cccc6c5n(C)c(=O)n6C5CCC(=O)NC5=O)CC4)CC3)C2)ccc1Nc1ncc2cc(Cl)c(=O)n(C3CCCC3)c2n1` (stereo not drawn) [I-40], where the note is “14 h incubation”, the “CDK2 degradation 14 h: Average Dmax %” value is “A (A (>75% o))” and the half-maximal degradation concentration (DC50) is < 100 nM.

For the molecule `Cc1cc(S(=O)(=O)C2CC3(CCN(CC4CCN(c5cccc6c5n(C)c(=O)n6C5CCC(=O)NC5=O)CC4)CC3)C2)ccc1Nc1ncc2c(n1)N(C1CCCC1)C(=O)C21CC1` (stereo not drawn) [I-42], for the setting “14 h incubation”, the “CDK2 degradation 14 h: Average Dmax %” value is recorded as “A (A (>75% o))” and the half-maximal degradation concentration (DC50) is < 100 nM.

In the case of `Cc1cc(S(=O)(=O)C2CCN(CCN3CCN(c4cccc5c4n(C)c(=O)n5C4CCC(=O)NC4=O)CC3=O)CC2)ccc1Nc1ncc2cc(Cl)c(=O)n(C3CCCC3)c2n1` (stereo not drawn) [I-43], under “14 h incubation”, the “CDK2 degradation 14 h: Average Dmax %” value is on record as “A (A (>75% o))” and the DC50 lay within 100 to 500 nM.

For the molecule `Cc1cc(S(=O)(=O)C2CC3(CCN(CC4CCN(c5cccc6c5n(C)c(=O)n6C5CCC(=O)NC5=O)CC4)CC3)C2)ccc1Nc1ncc2cc(Cl)c(=O)n(C3CCCC34CC4)c2n1` (stereo not drawn) [I-44], under “14 h incubation”, the “CDK2 degradation 14 h: Average Dmax %” value was “A (A (>75% o))” and the half-maximal degradation concentration (DC50) was < 100 nM.

Turning to `Cc1cc(S(=O)(=O)C2CC3(CCN(CC4(F)CCN(c5cccc6c5n(C)c(=O)n6C5CCC(=O)NC5=O)CC4)CC3)C2)ccc1Nc1ncc2cc(Cl)c(=O)n(C3CCCC3)c2n1` (stereo not drawn) [I-45], under “14 h incubation”, the “CDK2 degradation 14 h: Average Dmax %” value was “A (A (>75% o))” and the DC50 was in the range of 100 to 500 nM.

Consider `Cc1cc(S(=O)(=O)C2CCC(CN(C)C3CCN(c4cccc5c4n(C)c(=O)n5C4CCC(=O)NC4=O)CC3)CC2)ccc1Nc1ncc(C(F)(F)F)c(-c2cnn(C)c2)n1` (stereo not drawn) [I-46], for which, under “14 h incubation”, the “CDK2 degradation 14 h: Average Dmax %” value is “A (A (>75% o))” and the DC50 was < 100 nM.

Usually DC50 stands for the concentration at which degradation of the target reaches its halfway point. As a reminder, the Dmax is the greatest extent of degradation seen.
